# PubChem BioAssay (NCI)
#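 Step 1: Grow cells in 96-well plates. Step 2: Expose to compound for 48 hours at 5 concentrations. Step 3: Interpolate endpoints linearly; if unreached, use highest concentration. Here, GI50 denotes the concentration required for 50% inhibition of growth. TGI: total growth inhibition.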
# How the values were obtained:
# Experiment in all cases: NCI-60 cell line screen, 48 h
# [1] = system: UACC-62 melanoma
# [2] = system: HOP-92 NSCLC
# [3] = system: 786-0 renal
# [4] = system: CAKI-1 renal
# [5] = system: SW-620 colon
# [6] = system: NCI-H460 lung
# [7] = system: HS 578T breast
# [8] = system: SF-295 CNS
# [9] = system: SN12C renal
# [10] = system: HT29 colon
# [11] = system: DU-145 prostate
# [12] = system: SF-539 CNS
# [13] = system: SNB-75 CNS
# [14] = system: OVCAR-4 ovarian
# [15] = system: LOX IMVI melanoma
# [16] = system: HCT-116 colon
# [17] = system: MALME-3M melanoma
# [18] = system: A549 NSCLC
# [19] = system: UACC-257 melanoma
# [20] = system: OVCAR-5 ovarian
# [21] = system: NCI-H522 lung
# [22] = system: SF-268 CNS
# [23] = system: EKVX NSCLC
# [24] = system: BT-549 breast
# [25] = system: MCF7 breast
# [26] = system: M14 melanoma
# [27] = system: ACHN renal
# [28] = system: TK-10 renal
# [29] = system: HCC-2998 colon
# [30] = system: MDA-MB-231 breast
# [31] = system: SK-MEL-28 melanoma
# [32] = system: SK-MEL-5 melanoma
# [33] = system: PC-3 prostate
# [34] = system: MDA-MB-435
# [35] = system: U251 CNS
# [36] = system: UO-31 renal
# [37] = system: SK-MEL-2 melanoma
# [38] = system: CCRF-CEM leukemia
# [39] = system: COLO 205 colon
# [40] = system: K-562 leukemia
# [41] = system: SNB-19 CNS
# [42] = system: A498 renal
# [43] = system: IGROV1 ovarian
# [44] = system: KM12 colon
# [45] = system: OVCAR-3 ovarian
# [46] = system: HOP-62 NSCLC
# [47] = system: SK-OV-3 ovarian
# [48] = system: HCT-15 colon
# [49] = system: MOLT-4 leukemia
# [50] = system: NCI-H23 lung
# [51] = system: RXF 393 renal
# [52] = system: RPMI-8226 leukemia
# [53] = system: OVCAR-8 ovarian
# [54] = system: SR leukemia
# [55] = system: NCI-H226 lung
# [56] = system: HL-60(TB) leukemia
# [57] = system: T-47D breast
# [58] = system: NCI/ADR-RES ovarian
structure (smiles),measurement,setting,value
COc1cccc(/C=C/C(=O)c2cc3c(N)c(C(=O)Nc4cccc(Cl)c4C)sc3nc2C)c1,GI50,[1],844 nM
same,TGI,[1],3500 nM
same,GI50,[2],1040 nM
same,TGI,[2],3160 nM
same,GI50,[3],823 nM
same,TGI,[3],1830 nM
same,GI50,[4],884 nM
same,TGI,[4],2530 nM
same,GI50,[5],472 nM
same,TGI,[5],3850 nM
same,GI50,[6],1380 nM
same,TGI,[6],4450 nM
same,GI50,[7],1710 nM
same,TGI,[7],> 50000 nM
same,GI50,[8],1500 nM
same,TGI,[8],9560 nM
same,GI50,[9],1210 nM
same,TGI,[9],3430 nM
same,GI50,[10],418 nM
same,TGI,[10],2410 nM
same,GI50,[11],1330 nM
same,TGI,[11],3980 nM
same,GI50,[12],967 nM
same,TGI,[12],2010 nM
same,GI50,[13],679 nM
same,TGI,[13],> 12100 nM
same,GI50,[14],1640 nM
same,TGI,[14],> 14100 nM
same,GI50,[15],676 nM
same,TGI,[15],1450 nM
same,GI50,[16],605 nM
same,TGI,[16],1420 nM
same,GI50,[17],1340 nM
same,TGI,[17],7760 nM
same,GI50,[18],1720 nM
same,TGI,[18],> 50000 nM
same,GI50,[19],3480 nM
same,TGI,[19],20900 nM
same,GI50,[20],1220 nM
same,TGI,[20],3440 nM
same,GI50,[21],424 nM
same,TGI,[21],2860 nM
same,GI50,[22],1570 nM
same,TGI,[22],14400 nM
same,GI50,[23],2610 nM
same,TGI,[23],> 31800 nM
same,GI50,[24],1000 nM
same,TGI,[24],2800 nM
same,GI50,[25],473 nM
same,TGI,[25],> 24800 nM
same,GI50,[26],1020 nM
same,TGI,[26],2780 nM
same,GI50,[27],811 nM
same,TGI,[27],1950 nM
same,GI50,[28],1530 nM
same,TGI,[28],8190 nM
same,GI50,[29],971 nM
same,TGI,[29],1830 nM
same,GI50,[30],1130 nM
same,TGI,[30],2680 nM
same,GI50,[31],1260 nM
same,TGI,[31],4700 nM
same,GI50,[32],1000 nM
same,TGI,[32],2340 nM
same,GI50,[33],1430 nM
same,TGI,[33],7340 nM
same,GI50,[34],345 nM
same,TGI,[34],1320 nM
same,GI50,[35],959 nM
same,TGI,[35],2050 nM
same,GI50,[36],809 nM
same,TGI,[36],1970 nM
same,GI50,[37],1640 nM
same,TGI,[37],12900 nM
same,GI50,[38],234 nM
same,TGI,[38],> 50000 nM
same,GI50,[39],1380 nM
same,TGI,[39],3630 nM
same,GI50,[40],241 nM
same,TGI,[40],> 50000 nM
same,GI50,[41],1290 nM
same,TGI,[41],6180 nM
same,GI50,[42],897 nM
same,TGI,[42],3070 nM
same,GI50,[43],832 nM
same,TGI,[43],1850 nM
same,GI50,[44],1020 nM
same,TGI,[44],2800 nM
same,GI50,[45],854 nM
same,TGI,[45],2000 nM
same,GI50,[46],1100 nM
same,TGI,[46],4640 nM
same,GI50,[47],2200 nM
same,TGI,[47],> 50000 nM
same,GI50,[48],510 nM
same,TGI,[48],1460 nM
same,GI50,[49],1260 nM
same,TGI,[49],> 50000 nM
same,GI50,[50],1340 nM
same,TGI,[50],5400 nM
same,GI50,[51],573 nM
same,TGI,[51],1290 nM
same,GI50,[52],257 nM
same,TGI,[52],1570 nM
same,GI50,[53],1490 nM
same,TGI,[53],> 50000 nM
same,GI50,[54],217 nM
same,TGI,[54],> 12300 nM
same,GI50,[55],983 nM
same,TGI,[55],2530 nM
same,GI50,[56],927 nM
same,TGI,[56],2840 nM
same,GI50,[57],1520 nM
same,TGI,[57],7820 nM
same,GI50,[58],883 nM
same,TGI,[58],3080 nM
